Reference: ChEMBL document CHEMBL5034019, “Discovery of the Next-Generation Pan-TRK Kinase Inhibitors for the Treatment of Cancer” (J Med Chem, 2021)
≈ marks a conversion by molar mass, not a printed value.

Assays:
[1] = biological target: High affinity nerve growth factor receptor (Homo sapiens, UniProt P04629)
Description: Inhibition of TrKA (unknown origin) incubated for 120 mins in presence of 33P-ATP

[2] = biological target: ALK tyrosine kinase receptor (Homo sapiens, UniProt Q9UM73)
Description: Inhibition of ALK (unknown origin) incubated for 120 mins in presence of 33P-ATP

[3] = Protein binding in rat plasma assessed as unbound fraction by LC-MS/MS based equilibrium dialysis method; assay type: ADME, cell-free
BaF3 [4] = assay: Cytotoxicity against mouse BaF3 cells transfected with TrKA G623R mutant assessed as reduction in cell viability by MTT assay; assay type: functional, cell-based
BaF3 [5] = assay: Cytotoxicity against mouse BaF3 cells transfected with SLC34A2-Ros1 assessed as reduction in cell viability by MTT assay; assay type: functional, cell-based
[6] = biological target: High affinity nerve growth factor receptor (Homo sapiens, UniProt P04629, G595R)
Chain of High affinity nerve growth factor receptor (Homo sapiens, UniProt P04629, G595R) (P04629 33-796 G595R limits assumed): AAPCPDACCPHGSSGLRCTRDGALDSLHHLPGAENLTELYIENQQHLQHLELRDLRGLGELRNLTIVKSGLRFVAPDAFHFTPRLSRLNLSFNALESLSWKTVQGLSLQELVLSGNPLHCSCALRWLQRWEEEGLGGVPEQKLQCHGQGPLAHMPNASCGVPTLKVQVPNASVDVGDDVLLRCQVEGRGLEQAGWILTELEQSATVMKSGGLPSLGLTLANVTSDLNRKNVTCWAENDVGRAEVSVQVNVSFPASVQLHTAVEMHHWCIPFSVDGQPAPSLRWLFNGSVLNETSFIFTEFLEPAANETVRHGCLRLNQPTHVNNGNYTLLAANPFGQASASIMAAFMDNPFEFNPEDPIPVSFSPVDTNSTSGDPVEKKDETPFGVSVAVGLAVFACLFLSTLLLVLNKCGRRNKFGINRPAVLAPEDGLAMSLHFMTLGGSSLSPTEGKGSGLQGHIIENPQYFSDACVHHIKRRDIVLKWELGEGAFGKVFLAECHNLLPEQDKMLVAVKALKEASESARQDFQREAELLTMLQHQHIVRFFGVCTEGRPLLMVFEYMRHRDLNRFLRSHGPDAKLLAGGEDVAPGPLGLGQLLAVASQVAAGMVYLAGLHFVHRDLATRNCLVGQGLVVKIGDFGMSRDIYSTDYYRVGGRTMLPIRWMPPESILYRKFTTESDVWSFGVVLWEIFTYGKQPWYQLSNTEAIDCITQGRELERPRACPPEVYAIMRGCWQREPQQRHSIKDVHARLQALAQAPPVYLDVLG

[7] = Protein binding in human plasma assessed as unbound fraction by LC-MS/MS based equilibrium dialysis method; assay type: ADME, cell-free
[8] = Metabolic stability in human liver microsomes assessed as intrinsic clearance at 1 uM by LC-MS/MS analysis; assay type: ADME, Microsome; conditions: read-out: CLH
[9] = Protein binding in mouse plasma assessed as unbound fraction by LC-MS/MS based equilibrium dialysis method; assay type: ADME, cell-free
[10] = Metabolic stability in dog liver microsomes assessed as intrinsic clearance at 1 uM by LC-MS/MS analysis; assay type: ADME, Canis lupus familiaris, Microsome; conditions: read-out: CLH
BaF3 [11] = assay: Cytotoxicity against mouse BaF3 cells transfected with TrKA G595R mutant assessed as reduction in cell viability by MTT assay; assay type: functional, cell-based
[12] = Metabolic stability in mouse liver microsomes assessed as intrinsic clearance at 1 uM by LC-MS/MS analysis; assay type: ADME, Microsome; conditions: read-out: CLH
[13] = Apparent permeability across apical to basolateral side in human Caco-2 cells incubated for 2 hrs by LC-MS/MS analysis; assay type: ADME, cell-based
[14] = Metabolic stability in rat liver microsomes assessed as intrinsic clearance at 1 uM by LC-MS/MS analysis; assay type: ADME, Microsome; conditions: read-out: CLH
[15] = Protein binding in dog plasma assessed as unbound fraction by LC-MS/MS based equilibrium dialysis method; assay type: ADME, cell-free, Canis lupus familiaris
[16] = Half life in Sprague-Dawley rat at 3 mg/kg measured up to 24 hrs by LC-MS/MS analysis; assay type: ADME, organism-based; conditions: in vivo
[17] = Volume of distribution in Sprague-Dawley rat at 3 mg/kg measured up to 24 hrs by LC-MS/MS analysis; assay type: ADME, organism-based; conditions: in vivo
[18] = C0 in Sprague-Dawley rat at 3 mg/kg measured up to 24 hrs by LC/MS/MS analysis; assay type: ADME, organism-based; conditions: in vivo
[19] = Tmax in Sprague-Dawley rat at 10 mg/kg, po measured up to 24 hrs by LC-MS analysis; assay type: ADME, organism-based; conditions: in vivo
BaF3 [20] = assay: Cytotoxicity against mouse BaF3 cells transfected with TrKA F589L mutant assessed as reduction in cell viability by MTT assay; assay type: functional, cell-based
[21] = AUC (0 to t) in Sprague-Dawley rat at 10 mg/kg, po measured up to 24 hrs by LC-MS/MS analysis; assay type: ADME, organism-based; design: route oral, dose 10 mg/kg, time <=24; conditions: in vivo
BaF3 [22] = assay: cells; conditions: Mus musculus
Description: Cytotoxicity against mouse BaF3 cells transfected with TrKA assessed as reduction in cell viability by MTT assay

Cytochrome P450 3A4 = Cytochrome P450 3A4 (Homo sapiens, UniProt P08684); assay: Inhibition of CYP3A4 in human pooled liver microsomes using midazolam and testosterone as substrate in presence of NADPH by LC-MS/MS analysis; assay type: ADME
[23] = Cmax in Sprague-Dawley rat at 10 mg/kg, po measured up to 24 hrs by LC-MS/MS analysis; assay type: ADME, organism-based; design: route oral, dose 10 mg/kg, time <=24; conditions: in vivo
Cytochrome P450 2D6 = Cytochrome P450 2D6 (Homo sapiens, UniProt P10635); assay: Inhibition of CYP2D6 in human pooled liver microsomes using dextromethorphan as substrate in presence of NADPH by LC-MS/MS analysis; assay type: ADME
Chain of Cytochrome P450 2D6 (P10635 whole entry): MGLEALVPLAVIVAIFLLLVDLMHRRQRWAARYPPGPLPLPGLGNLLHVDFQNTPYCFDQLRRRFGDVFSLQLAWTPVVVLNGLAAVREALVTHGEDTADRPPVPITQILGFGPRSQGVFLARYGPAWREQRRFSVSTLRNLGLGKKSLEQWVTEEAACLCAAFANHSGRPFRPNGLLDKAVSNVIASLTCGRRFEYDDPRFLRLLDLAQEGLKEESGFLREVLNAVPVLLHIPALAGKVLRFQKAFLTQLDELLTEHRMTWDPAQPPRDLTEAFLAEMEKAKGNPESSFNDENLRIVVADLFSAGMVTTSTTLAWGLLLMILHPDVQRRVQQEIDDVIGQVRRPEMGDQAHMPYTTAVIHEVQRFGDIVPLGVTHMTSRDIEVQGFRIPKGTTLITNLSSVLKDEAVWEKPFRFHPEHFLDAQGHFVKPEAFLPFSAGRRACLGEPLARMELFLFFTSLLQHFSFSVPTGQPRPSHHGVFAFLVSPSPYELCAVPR

[24] = AUC (0 to t) in Sprague-Dawley rat at 3 mg/kg measured up to 24 hrs by LC-MS/MS analysis; assay type: ADME, organism-based; design: dose 3 mg/kg, time <=24; conditions: in vivo
Cytochrome P450 2C9 = Cytochrome P450 2C9 (Homo sapiens, UniProt P11712); assay: Inhibition of CYP2C9 in human pooled liver microsomes using diclofenac as substrate in presence of NADPH by LC-MS/MS analysis; assay type: ADME
Cytochrome P450 1A2 = biological target: T1, Cytochrome P450 1A2 (Homo sapiens, UniProt P05177); assay: Inhibition of CYP1A2 in human pooled liver microsomes using phenacetin as substrate in presence of NADPH by LC-MS/MS analysis; assay type: ADME
T1 sequence (P05177 whole entry): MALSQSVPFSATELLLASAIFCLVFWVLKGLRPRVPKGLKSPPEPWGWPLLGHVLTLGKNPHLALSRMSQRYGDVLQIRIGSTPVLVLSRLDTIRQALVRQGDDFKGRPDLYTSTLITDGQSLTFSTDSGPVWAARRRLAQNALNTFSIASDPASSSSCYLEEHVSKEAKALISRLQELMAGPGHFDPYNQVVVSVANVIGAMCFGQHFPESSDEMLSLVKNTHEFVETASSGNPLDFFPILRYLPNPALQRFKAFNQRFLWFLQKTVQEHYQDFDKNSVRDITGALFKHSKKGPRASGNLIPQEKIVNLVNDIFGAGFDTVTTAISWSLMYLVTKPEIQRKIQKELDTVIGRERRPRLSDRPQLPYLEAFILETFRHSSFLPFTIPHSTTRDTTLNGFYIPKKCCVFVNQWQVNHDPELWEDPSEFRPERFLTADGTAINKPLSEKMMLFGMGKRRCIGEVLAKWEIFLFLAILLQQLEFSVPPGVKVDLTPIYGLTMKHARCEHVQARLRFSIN

Cytochrome P450 2C19 = Cytochrome P450 2C19 (Homo sapiens, UniProt P33261); assay: Inhibition of CYP2C19 in human pooled liver microsomes using S-mephenytoin as substrate in presence of NADPH by LC-MS/MS analysis; assay type: ADME
[25] = Clearance in Sprague-Dawley rat at 3 mg/kg measured up to 24 hrs by LC/MS/MS analysis; assay type: ADME, organism-based; conditions: in vivo
[26] = Oral bioavailability in Sprague-Dawley rat at 10 mg/kg measured up to 24 hrs by LC/MS/MS analysis; assay type: ADME, organism-based; conditions: in vivo
[27] = Kinetic solubility of the compound; assay type: physicochemical; conditions: read-out: Kinetic_solubility
[28] = biological target: Voltage-gated inwardly rectifying potassium channel KCNH2 (Homo sapiens, UniProt Q12809); assay: Inhibition of human ERG
Chain of Voltage-gated inwardly rectifying potassium channel KCNH2 (Q12809 whole entry): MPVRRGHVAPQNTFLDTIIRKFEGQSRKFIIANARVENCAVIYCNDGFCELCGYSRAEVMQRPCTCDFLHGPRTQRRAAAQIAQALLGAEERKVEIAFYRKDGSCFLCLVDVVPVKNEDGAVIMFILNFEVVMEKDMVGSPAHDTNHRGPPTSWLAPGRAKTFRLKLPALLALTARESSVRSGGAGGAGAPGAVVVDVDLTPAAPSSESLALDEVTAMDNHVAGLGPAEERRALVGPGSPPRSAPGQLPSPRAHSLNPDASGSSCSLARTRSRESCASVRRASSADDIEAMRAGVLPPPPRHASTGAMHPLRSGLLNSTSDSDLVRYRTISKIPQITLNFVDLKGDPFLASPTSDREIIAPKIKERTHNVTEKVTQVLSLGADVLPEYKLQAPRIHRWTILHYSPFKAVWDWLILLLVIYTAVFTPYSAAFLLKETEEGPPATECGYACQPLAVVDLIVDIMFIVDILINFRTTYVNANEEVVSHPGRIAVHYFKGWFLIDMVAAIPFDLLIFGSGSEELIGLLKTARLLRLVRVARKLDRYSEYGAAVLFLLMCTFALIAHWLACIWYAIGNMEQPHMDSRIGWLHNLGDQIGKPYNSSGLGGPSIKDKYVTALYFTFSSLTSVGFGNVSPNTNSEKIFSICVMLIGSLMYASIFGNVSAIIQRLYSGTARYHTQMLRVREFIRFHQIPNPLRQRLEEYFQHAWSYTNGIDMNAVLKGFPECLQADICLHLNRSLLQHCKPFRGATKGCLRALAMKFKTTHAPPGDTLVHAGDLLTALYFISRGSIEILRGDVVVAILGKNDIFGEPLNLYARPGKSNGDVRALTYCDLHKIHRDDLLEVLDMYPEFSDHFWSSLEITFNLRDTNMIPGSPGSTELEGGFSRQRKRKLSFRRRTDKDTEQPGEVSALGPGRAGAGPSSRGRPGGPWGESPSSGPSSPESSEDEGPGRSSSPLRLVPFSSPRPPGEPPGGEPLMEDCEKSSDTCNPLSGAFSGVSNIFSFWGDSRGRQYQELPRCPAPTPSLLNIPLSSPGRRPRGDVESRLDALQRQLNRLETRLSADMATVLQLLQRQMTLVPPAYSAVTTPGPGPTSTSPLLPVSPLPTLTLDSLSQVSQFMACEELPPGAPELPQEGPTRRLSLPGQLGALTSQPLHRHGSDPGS

Chain of High affinity nerve growth factor receptor (Homo sapiens, UniProt P04629) (P04629 whole entry): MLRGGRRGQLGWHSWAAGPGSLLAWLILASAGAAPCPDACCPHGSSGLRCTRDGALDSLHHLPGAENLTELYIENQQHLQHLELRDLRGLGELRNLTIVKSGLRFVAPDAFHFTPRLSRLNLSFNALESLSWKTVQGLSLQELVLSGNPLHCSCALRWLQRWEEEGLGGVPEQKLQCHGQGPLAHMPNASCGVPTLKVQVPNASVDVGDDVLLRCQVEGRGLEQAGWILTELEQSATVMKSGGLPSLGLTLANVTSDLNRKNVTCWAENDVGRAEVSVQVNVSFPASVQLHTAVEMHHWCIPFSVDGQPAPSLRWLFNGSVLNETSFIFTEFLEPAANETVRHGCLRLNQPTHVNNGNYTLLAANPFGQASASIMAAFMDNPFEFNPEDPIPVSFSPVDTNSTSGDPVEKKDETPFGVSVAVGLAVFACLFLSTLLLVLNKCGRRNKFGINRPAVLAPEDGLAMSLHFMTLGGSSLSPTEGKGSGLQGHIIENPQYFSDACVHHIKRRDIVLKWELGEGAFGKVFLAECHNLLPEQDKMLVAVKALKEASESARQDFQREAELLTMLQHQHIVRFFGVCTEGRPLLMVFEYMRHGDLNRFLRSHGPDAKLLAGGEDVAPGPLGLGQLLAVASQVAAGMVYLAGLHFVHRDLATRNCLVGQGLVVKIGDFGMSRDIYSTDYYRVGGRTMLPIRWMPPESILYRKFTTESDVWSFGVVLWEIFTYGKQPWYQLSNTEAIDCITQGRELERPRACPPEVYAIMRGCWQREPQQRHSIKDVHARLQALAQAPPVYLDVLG
Chain of ALK tyrosine kinase receptor (Q9UM73 whole entry): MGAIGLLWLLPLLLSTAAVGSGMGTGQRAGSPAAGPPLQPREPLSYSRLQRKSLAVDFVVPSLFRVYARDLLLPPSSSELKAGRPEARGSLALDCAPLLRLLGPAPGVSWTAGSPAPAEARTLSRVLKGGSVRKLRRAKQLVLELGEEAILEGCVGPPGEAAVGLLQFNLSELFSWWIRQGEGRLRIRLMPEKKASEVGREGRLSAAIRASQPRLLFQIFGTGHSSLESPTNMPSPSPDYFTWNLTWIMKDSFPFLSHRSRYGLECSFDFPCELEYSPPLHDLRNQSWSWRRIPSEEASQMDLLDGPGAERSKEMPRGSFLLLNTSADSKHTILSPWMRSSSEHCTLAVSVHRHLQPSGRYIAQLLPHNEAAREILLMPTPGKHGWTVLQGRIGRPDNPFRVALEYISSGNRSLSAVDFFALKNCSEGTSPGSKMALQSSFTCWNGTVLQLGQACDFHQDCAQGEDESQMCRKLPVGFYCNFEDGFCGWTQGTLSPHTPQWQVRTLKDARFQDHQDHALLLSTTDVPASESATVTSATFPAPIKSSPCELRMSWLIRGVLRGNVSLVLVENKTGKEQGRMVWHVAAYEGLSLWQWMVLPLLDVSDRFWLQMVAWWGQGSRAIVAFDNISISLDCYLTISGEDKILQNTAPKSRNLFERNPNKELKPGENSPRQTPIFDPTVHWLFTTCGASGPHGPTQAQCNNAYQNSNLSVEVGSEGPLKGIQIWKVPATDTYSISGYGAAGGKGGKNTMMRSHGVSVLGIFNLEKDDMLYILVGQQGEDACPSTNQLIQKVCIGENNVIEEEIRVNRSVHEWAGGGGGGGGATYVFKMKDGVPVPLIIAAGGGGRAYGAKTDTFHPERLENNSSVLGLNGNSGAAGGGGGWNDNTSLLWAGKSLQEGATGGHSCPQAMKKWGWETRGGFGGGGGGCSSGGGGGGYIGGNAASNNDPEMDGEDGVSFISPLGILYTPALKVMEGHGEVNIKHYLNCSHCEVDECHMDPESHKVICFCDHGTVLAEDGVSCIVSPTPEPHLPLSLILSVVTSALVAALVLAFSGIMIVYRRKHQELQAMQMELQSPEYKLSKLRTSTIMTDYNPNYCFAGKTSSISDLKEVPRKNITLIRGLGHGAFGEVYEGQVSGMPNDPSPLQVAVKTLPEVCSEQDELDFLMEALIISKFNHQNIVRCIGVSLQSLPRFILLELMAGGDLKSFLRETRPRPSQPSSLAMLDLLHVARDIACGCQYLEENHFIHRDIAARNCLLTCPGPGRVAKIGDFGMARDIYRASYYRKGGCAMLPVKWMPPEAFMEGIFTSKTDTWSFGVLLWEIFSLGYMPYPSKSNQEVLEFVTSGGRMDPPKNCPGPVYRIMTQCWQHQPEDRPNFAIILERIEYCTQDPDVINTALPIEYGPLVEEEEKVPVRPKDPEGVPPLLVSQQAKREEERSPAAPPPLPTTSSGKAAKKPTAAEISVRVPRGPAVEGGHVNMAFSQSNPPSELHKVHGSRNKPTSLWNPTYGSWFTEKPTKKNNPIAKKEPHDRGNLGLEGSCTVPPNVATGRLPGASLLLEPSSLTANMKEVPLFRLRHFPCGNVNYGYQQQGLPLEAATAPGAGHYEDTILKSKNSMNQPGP

`C[C@@H]1COc2ncc(F)cc2C23CC2CCN3c2ccn3ncc(c3n2)C(=O)N1` (some centres undefined) showed an IC50 [1] of 0.0675 µM.
Compound `C[C@H]1CNS(=O)(=O)c2cnn3ccc(nc23)N[C@H](C)c2cc(F)ccc2O1` has an IC50 [1] of over 1 µM.
Compound `C[C@H]1NC(=O)c2cnn3ccc(nc23)N[C@H](C)c2cc(F)ccc2NC1=O` has an IC50 [1] of 0.846 µM.
Work on `O=C1NC2(CC2)COc2ncc(F)cc2[C@H]2CCCCN2c2ccn3ncc1c3n2` yielded an IC50 [2] of 0.0185 µM, a fraction unbound [3] of 0.02 and an IC50 (BaF3 [4]) of 0.0058 µM. For the same compound, the IC50 (BaF3 [5]) was 0.0126 µM, the IC50 [1] was 0.0032 µM and the IC50 [6] was 0.0021 µM. It also gave a fraction unbound [7] of 0.02, a CLint scaled at 1 µM [8] of 14.5 L/h/kg and a fraction unbound [9] of 0.02. For the same compound, the CLint scaled at 1 µM [10] was 16.1 L/h/kg, the IC50 (BaF3 [11]) was 0.0004 µM and the CLint scaled at 1 µM [12] was 60.6 L/h/kg. For the same compound, the Papp A→B at 2 h [13] was 163 nm/s, the CLint scaled at 1 µM [14] was 58.8 L/h/kg and the fraction unbound [15] was 0.03.
Work on `C[C@H]1CNC(=O)c2cnn3ccc(nc23)N[C@H](C)c2cc(F)ccc2O1` [REPOTRECTINIB] yielded a half-life [16] of 2.8 h, a Vd [17] of 1.1 L/kg and a C0 [18] of 12.87 µM. The Tmax [19] was 0.8 h, the fraction unbound [3] was 0.06 and the IC50 (BaF3 [20]) was 0.0007 µM. It also gave an IC50 (BaF3 [4]) of 0.0048 µM, an AUC(0-t) at 24 h [21] of 59.7 µM·h and an IC50 (BaF3 [22]) of 0.0018 µM. The IC50 (Cytochrome P450 3A4) was over 50 µM, the IC50 (BaF3 [5]) was 0.0022 µM and the Cmax [23] was 16.9 µM. The IC50 (Cytochrome P450 2D6) was 28.5 µM, the AUC(0-t) at 24 h [24] was 15 µM·h and the IC50 (Cytochrome P450 2C9) was 6.4 µM. For the same compound, the IC50 (Cytochrome P450 1A2) was over 50 µM, the IC50 (Cytochrome P450 2C19) was 12.3 µM and the fraction unbound [7] was 0.05. For the same compound, the CLint scaled at 1 µM [8] was 1.74 L/h/kg, the fraction unbound [9] was 0.05 and the CLint scaled at 1 µM [10] was 1.26 L/h/kg. For the same compound, the IC50 (BaF3 [11]) was 0.008 µM, the CLint scaled at 1 µM [12] was 58.9 L/h/kg and the clearance [25] was 0.564 L/h/kg. It also gave a bioavailability [26] of 119%, a solubility kinetic [27] of 65.8 µM (≈ 23.4 µg/mL) and a Papp A→B at 2 h [13] of 9 nm/s. The CLint scaled at 1 µM [14] was 2.94 L/h/kg and the fraction unbound [15] was 0.09.
`C[C@H]1Nc2ccn3ncc(c3n2)C(=O)N2CCC(CC2)c2ccc(F)cc21` showed an IC50 [1] of over 1 µM.
Compound `C[C@H]1Nc2ccn3ncc(c3n2)C(=O)N2CCN(CC2)c2ccc(F)cc21` has an IC50 [1] of over 1 µM.
With `O=C1NC2(CC2)COc2ncc(F)cc2[C@H]2CNCCN2c2ccn3ncc1c3n2` the fraction unbound [3] was 0.3, the fraction unbound [7] was 0.36 and the CLint scaled at 1 µM [8] was 2.58 L/h/kg. The fraction unbound [9] was 0.28, the CLint scaled at 1 µM [10] was 4.44 L/h/kg and the IC50 [28] was 6.7 µM. It also gave a CLint scaled at 1 µM [12] of 20.5 L/h/kg, a Papp A→B at 2 h [13] of 39 nm/s and a CLint scaled at 1 µM [14] of 1.74 L/h/kg. It also gave a fraction unbound [15] of 0.34.
